Test results published in the supplement of paper PMC10331698.
± gives the standard deviation of the averaged measurements.

Key:
Assay in all cases: level (log10 ratio to DMSO vehicle control); higher = higher biomarker level / cell amount than vehicle control
[1] = compound: O=C(O)C(F)(F)C(F)(F)C(F)(F)C(F)(F)C(=O)O [Octafluoroadipic acid] (in DMSO)
Procedure: (§1)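 BioMAP Diversity Plus panel of 12 human primary cell co-culture systems (3C, 4H, LPS, SAg, BT, BF4T, BE3C, CASM3C, HDF3CGF, KF3CT, MyoF, Mphg). Compounds were added 1 h before stimulation and left for 24 h (MyoF 48 h; BT 72 h for soluble read-outs or 6 d for IgG). Biomarkers were read by ELISA, cytotoxicity by SRB, PBMC viability and proliferation by Alamar Blue. Each well value was divided by the mean of 8 DMSO control wells on the same plate and log10 transformed; duplicate blinded samples were tested at 4 concentrations.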

[2] = compound: O=C(O)C(F)(F)C(F)(F)C(F)(F)C(F)(F)C(F)(F)C(F)(F)C(F)(F)C(F)(F)F [Perfluorononanoic acid] (in DMSO)
Procedure: as §1

[3] = compound: OCC(F)(F)OC(F)(F)C(F)(F)OC(F)(F)C(F)(F)OC(F)(F)CO [1H,1H,11H,11H-Perfluorotetraethylene glycol] (in DMSO)
Procedure: as §1

[4] = compound: O=C(O)C(F)(OC(F)(F)C(F)(F)C(F)(F)F)C(F)(F)F [Ammonium perfluoro-2-methyl-3-oxahexanoate] (in Water)
Procedure: as §1

[5] = compound: OCC(F)(F)C(F)(F)C(F)(F)C(F)F [1H,1H,5H-Perfluoropentanol] (in DMSO)
Procedure: as §1

[6] = compound: CCOC(=O)CC(=O)C(F)(F)C(F)(F)F [Ethyl pentafluoropropionyl acetate] (in DMSO)
Procedure: as §1

[7] = compound: O=S(=O)(O)C(F)(F)C(F)(F)OC(F)(F)C(F)(F)F [Perfluoro(2-ethoxyethane)sulfonic acid] (in DMSO)
Procedure: as §1

Test System | level (log10) ([1]; 6700 nM) | level (log10) ([1]; 20000 nM) | level (log10) ([1]; 60000 nM) | level (log10) ([2]; 6700 nM) | level (log10) ([2]; 20000 nM) | level (log10) ([3]; 6700 nM) | level (log10) ([3]; 20000 nM) | level (log10) ([3]; 60000 nM) | level (log10) ([4]; 6700 nM) | level (log10) ([4]; 20000 nM) | level (log10) ([4]; 60000 nM) | level (log10) ([5]; 6700 nM) | level (log10) ([5]; 20000 nM) | level (log10) ([5]; 60000 nM) | level (log10) ([6]; 6700 nM) | level (log10) ([6]; 20000 nM) | level (log10) ([6]; 60000 nM) | level (log10) ([7]; 6700 nM) | level (log10) ([7]; 20000 nM) | level (log10) ([7]; 60000 nM)
KF3CT:PAI-I | -0.0135 ± 0.0092 | -0.0135 ± 0.011 | -0.002 ± 0.017 | 0.065 ± 0.011 | -0.0095 ± 0.032 | -0.003 ± 0.02 | -0.0115 ± 0.0064 | -0.033 ± 0.0042 | -0.0455 ± 0.012 | -0.0695 ± 0.0078 | -0.054 ± 0.02 | 0.0105 ± 0.098 | 0.062 ± 0.035 | -0.0045 ± 0.011 | -0.02 ± 0.023 | -0.01 ± 0.035 | -0.0055 ± 0.026 | -0.01 | -0.0145 ± 0.0078 | -0.009 ± 0.013
MyoF:bFGF | -0.0035 ± 0.00071 | 0.002 ± 0.0057 | 0.0055 ± 0.0092 | -0.0025 ± 0.025 | 0.015 ± 0.014 | 0.0045 ± 0.00071 | 0.0045 ± 0.0092 | 0.004 ± 0.011 | 0.017 ± 0.0099 | 0.006 ± 0.0014 | 0.0005 ± 0.0092 | -0.02 ± 0.016 | 0.0115 ± 0.026 | 0.0135 ± 0.012 | -0.0045 ± 0.0064 | 0.0015 ± 0.0021 | 0.0135 ± 0.012 | 0.003 ± 0.0014 | 0.0085 ± 0.0064 | 0.0165 ± 0.0092
HDF3CGF:MMP-1 | -0.0115 ± 0.0078 | 0.0025 ± 0.0035 | 0.0015 ± 0.0064 | -0.008 ± 0.0099 | -0.012 ± 0.0042 | 0.0265 ± 0.0092 | 0.0845 ± 0.021 | 0.095 ± 0.0014 | 0.0035 ± 0.016 | 0.011 | 0.008 ± 0.0085 | 0.0075 ± 0.005 | 0.007 ± 0.0085 | 0.0105 ± 0.022 | 0.01 ± 0.028 | 0.022 ± 0.0071 | 0.029 ± 0.034 | -0.004 ± 0.0071 | -0.0135 ± 0.029 | -0.0235 ± 0.053
BE3C:MMP-1 | -0.0145 ± 0.025 | -0.0205 ± 0.037 | 0.0155 ± 0.0021 | 0.05 ± 0.059 | 0.221 ± 0.035 | -0.001 ± 0.0057 | 0.022 | 0.0915 ± 0.057 | 0.0325 ± 0.032 | 0.062 ± 0.038 | 0.136 ± 0.013 | -0.014 ± 0.011 | 0.029 ± 0.024 | 0.023 ± 0.03 | -0.01 ± 0.013 | -0.023 ± 0.018 | 0.021 ± 0.0014 | -0.001 ± 0.0071 | 0.0055 ± 0.018 | 0.108 ± 0.069
lMphg:M-CSF | -0.012 ± 0.0071 | -0.0255 ± 0.0035 | -0.006 ± 0.017 | -0.0215 ± 0.0064 | -0.006 ± 0.031 | -0.0215 ± 0.0021 | -0.0385 ± 0.0078 | -0.0575 ± 0.044 | -0.084 ± 0.021 | -0.0725 ± 0.00071 | -0.0815 ± 0.011 | 0.0115 ± 0.016 | -0.0125 ± 0.0064 | 0.0175 ± 0.021 | -0.01 ± 0.0099 | -0.001 ± 0.028 | 0.005 ± 0.0014 | 0.0025 ± 0.0092 | -0.011 ± 0.0028 | -0.011 ± 0.0071
MyoF:MMP-1 | -0.013 ± 0.025 | -0.0175 ± 0.0035 | 0.0125 ± 0.03 | -0.025 ± 0.031 | 0.0665 ± 0.0021 | 0 ± 0.027 | -0.0085 ± 0.015 | 0.0465 ± 0.083 | -0.0025 ± 0.0064 | 0.0185 ± 0.0092 | -0.0095 ± 0.0064 | -0.054 ± 0.028 | -0.01 ± 0.052 | 0.093 ± 0.13 | -0.0245 ± 0.03 | -0.0125 ± 0.011 | 0.034 ± 0.058 | -0.005 ± 0.014 | -0.0365 ± 0.00071 | 0.0155 ± 0.037
CASM3C:IL-6 | -0.0225 ± 0.0092 | -0.0115 ± 0.0064 | 0.013 ± 0.061 | -0.016 ± 0.035 | -0.016 ± 0.024 | -0.0195 ± 0.021 | -0.0305 ± 0.026 | -0.013 ± 0.035 | 0.0075 ± 0.005 | -0.052 ± 0.042 | -0.0375 ± 0.047 | 0.001 ± 0.041 | -0.0005 ± 0.021 | 0.0255 ± 0.036 | -0.022 ± 0.011 | -0.021 ± 0.023 | 0.009 ± 0.057 | -0.024 ± 0.0028 | -0.041 ± 0.033 | -0.0725 ± 0.015
HDF3CGF:SRB | -0.033 ± 0.023 | 0.0135 ± 0.037 | -0.0005 ± 0.042 | 0.014 ± 0.0014 | -0.0155 ± 0.026 | -0.0225 ± 0.043 | -0.023 ± 0.1 | -0.0555 ± 0.077 | -0.033 ± 0.02 | -0.0325 ± 0.0021 | -0.0175 ± 0.011 | -0.0275 ± 0.0064 | -0.0025 ± 0.03 | -0.0015 ± 0.037 | 0.007 ± 0.027 | -0.0005 ± 0.032 | 0.0025 ± 0.021 | -0.02 ± 0.0085 | -0.017 ± 0.013 | 0.0085 ± 0.1
